Experimental data taken from the supplement of paper PMC11208160.

Assay: recombinant UMI read abundance after kanamycin selection (control-corrected) (log10(CPM+1)); higher = more efficient recombination; extreme values may be limits of the assay; sequences stand for … in AGTGCAGAGAAAATCGGCCAGTTTTCTCTGCCTGCAGTCCGCATGCCGTGGGACCCCTTGGGTTCTAACCTGTTGCCTAGATTTATGCAGCGGACTGCCTTTCTCCCAAAGTGATAAACCGG…AGGTTGGTTTCACT; site = the 11-nt donor
Outline: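 Values are reported as log10(CPM+1), obtained by converting sequencing counts to CPM, averaging replicates and scaling by control-derived factors. The counts came from recombinant UMIs amplified by PCR across the donor–target junction. These UMIs came from a pooled Escherichia coli screen of donor and donor-binding-loop pairs for the IS621 bridge recombinase, plated with IPTG (0.07 mM) plus kanamycin or left unselected, in two replicates each.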
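Also: IS621 bridge recombinase in Escherichia coli cells against a fixed T5 target plasmid.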

| Sequence | recombinant UMI read abundance (log10) |
| --- | --- |
| CGATCGTCATGGACCGGTTTTCCCGGTAATCCGTATTTGAT (site CGATCATCTAG) | 0.00648 |
| CGATCGTCATGGACCGGTTTTCCCGGTAATCCGTATTTGAT (site CGATCGTCTAT) | 0.972 |
| CGATGATCATGGACCGGTTTTCCCGGTAATCCGTATTTGAG (site CGATGATCTCT) | 3.16 |
| CGATGATCATGGACCGGTTTTCCCGGTAATCCGTATTTGCC (site CGATCATCTAG) | 0 |
| CGATGATCATGGACCGGTTTTCCCGGTAATCCGTATTTGCC (site CGATGATCTGG) | 2 |
| CGATGCGCATGGACCGGTTTTCCCGGTAATCCGTATTTGAT (site CGATGCGCTAT) | 2.43 |
| CGATGCTCATGGACCGGTTTTCCCGGTAATCCGTATTTGAA (site CAATGCTCTTT) | 0.249 |
| CGATGCTCATGGACCGGTTTTCCCGGTAATCCGTATTTGAA (site CCATGCTCTTT) | 0.00345 |
| CGATGCTCATGGACCGGTTTTCCCGGTAATCCGTATTTGAA (site CGATGCTCTTT) | 2.6 |
| CGATGCTCATGGACCGGTTTTCCCGGTAATCCGTATTTGAA (site CTATGCTCTTT) | 0.0185 |
| CGATGTCCATGGACCGGTTTTCCCGGTAATCCGTATTTGGA (site CGATGTCCTTC) | 0.0178 |
| CGATTCGCATGGACCGGTTTTCCCGGTAATCCGTATTTGCT (site CGATTCGCTAG) | 2.12 |
| CGATTGACATGGACCGGTTTTCCCGGTAATCCGTATTTGTT (site CGATAGACTAA) | 0.0285 |
| CGATTGACATGGACCGGTTTTCCCGGTAATCCGTATTTGTT (site CGATCGACTAA) | 0.016 |
| CGATTGACATGGACCGGTTTTCCCGGTAATCCGTATTTGTT (site CGATGGACTAA) | 0.00746 |
| CGATTGACATGGACCGGTTTTCCCGGTAATCCGTATTTGTT (site CGATTGACTAA) | 1.24 |
| CGATTTTCATGGACCGGTTTTCCCGGTAATCCGTATTTGCT (site CGATCATCTAG) | 0 |
| CGATTTTCATGGACCGGTTTTCCCGGTAATCCGTATTTGCT (site CGATTTTCTAG) | 1.29 |
| CGCAAGACATGGACCGGTTTTCCCGGTAATCCGTATTTGCA (site CGCAAGACTTG) | 1.79 |
| CGCAATACATGGACCGGTTTTCCCGGTAATCCGTATTTGGT (site CGCAATACTAC) | 1.25 |
| CGCAATCCATGGACCGGTTTTCCCGGTAATCCGTATTTGTT (site CGAAATCCTAA) | 0.00301 |
| CGCAATCCATGGACCGGTTTTCCCGGTAATCCGTATTTGTT (site CGCAATCCTAA) | 0.698 |
| CGCAATCCATGGACCGGTTTTCCCGGTAATCCGTATTTGTT (site CGGAATCCTAA) | 0 |
| CGCAATCCATGGACCGGTTTTCCCGGTAATCCGTATTTGTT (site CGTAATCCTAA) | 0 |
| CGCACCCCATGGACCGGTTTTCCCGGTAATCCGTATTTGAC (site CGCACCCCTGT) | 1.43 |

| Sequence | recombinant UMI read abundance (log10) |
| --- | --- |
| CGCACGACATGGACCGGTTTTCCCGGTAATCCGTATTTGCC (site CGCACGACTGG) | 1.95 |
| CGCAGAACATGGACCGGTTTTCCCGGTAATCCGTATTTGCA (site CGCAGAACTTG) | 1.37 |
| CGCAGAACATGGACCGGTTTTCCCGGTAATCCGTATTTGTA (site CGCAGAACTTA) | 2.19 |
| CGCATCCCATGGACCGGTTTTCCCGGTAATCCGTATTTGGC (site CGCATCCCTGC) | 1.75 |
| CGCATTTCATGGACCGGTTTTCCCGGTAATCCGTATTTGCC (site CGCATTTCTGG) | 0 |
| CGCCACCCATGGACCGGTTTTCCCGGTAATCCGTATTTGTT (site AGCCACCCTAA) | 0.00879 |
| CGCCACCCATGGACCGGTTTTCCCGGTAATCCGTATTTGTT (site CGCCACCCTAA) | 0.0407 |
| CGCCACCCATGGACCGGTTTTCCCGGTAATCCGTATTTGTT (site GGCCACCCTAA) | 0.0241 |
| CGCCACCCATGGACCGGTTTTCCCGGTAATCCGTATTTGTT (site TGCCACCCTAA) | 0.00618 |
| CGCCAGACATGGACCGGTTTTCCCGGTAATCCGTATTTGCC (site CGCCAGACTGG) | 1.38 |
| CGCCATCCATGGACCGGTTTTCCCGGTAATCCGTATTTGTT (site CGCCATCCTAA) | 0.44 |
| CGCCATCCATGGACCGGTTTTCCCGGTAATCCGTATTTGTT (site CGGAATCCTAA) | 0 |
| CGCCATGCATGGACCGGTTTTCCCGGTAATCCGTATTTGAC (site CGCCATGCTGT) | 1.6 |
| CGCCGTACATGGACCGGTTTTCCCGGTAATCCGTATTTGCA (site CGCCGTACTAG) | 0.00535 |
| CGCCGTACATGGACCGGTTTTCCCGGTAATCCGTATTTGCA (site CGCCGTACTCG) | 0.013 |
| CGCCGTACATGGACCGGTTTTCCCGGTAATCCGTATTTGCA (site CGCCGTACTGG) | 0.685 |
| CGCCGTACATGGACCGGTTTTCCCGGTAATCCGTATTTGCA (site CGCCGTACTTG) | 2.07 |
| CGCCGTACATGGACCGGTTTTCCCGGTAATCCGTATTTGGT (site CGCCGTACTAA) | 0.0124 |
| CGCCGTACATGGACCGGTTTTCCCGGTAATCCGTATTTGGT (site CGCCGTACTAC) | 0.57 |
| CGCCGTACATGGACCGGTTTTCCCGGTAATCCGTATTTGGT (site CGCCGTACTAG) | 0 |
| CGCCGTACATGGACCGGTTTTCCCGGTAATCCGTATTTGGT (site CGCCGTACTAT) | 0.321 |
| CGCCTGTCATGGACCGGTTTTCCCGGTAATCCGTATTTGTT (site CGCCTGTCTAA) | 0.902 |
| CGCCTTCCATGGACCGGTTTTCCCGGTAATCCGTATTTGGT (site CGCCTTCCTAC) | 0.0121 |
| CGCGGAACATGGACCGGTTTTCCCGGTAATCCGTATTTGTT (site CGAGGAACTAA) | 0.0752 |
| CGCGGAACATGGACCGGTTTTCCCGGTAATCCGTATTTGTT (site CGCGGAACTAA) | 2.39 |

| Sequence | recombinant UMI read abundance (log10) |
| --- | --- |
| CGCGGAACATGGACCGGTTTTCCCGGTAATCCGTATTTGTT (site CGGGGAACTAA) | 0.0138 |
| CGCGGAACATGGACCGGTTTTCCCGGTAATCCGTATTTGTT (site CGTGGAACTAA) | 0.00441 |
| CGCGGAGCATGGACCGGTTTTCCCGGTAATCCGTATTTGGC (site CGCGGAGCTGC) | 0.884 |
| CGCGGAGCATGGACCGGTTTTCCCGGTAATCCGTATTTGGT (site CGCGGAGCTAC) | 1.14 |
| CGCGTTCCATGGACCGGTTTTCCCGGTAATCCGTATTTGGA (site CGCGTTCCTTC) | 0 |
| CGCTCCTCATGGACCGGTTTTCCCGGTAATCCGTATTTGCT (site CGATCATCTAG) | 0 |
| CGCTCCTCATGGACCGGTTTTCCCGGTAATCCGTATTTGCT (site CGCTCCTCTAG) | 3.07 |
| CGCTCCTCATGGACCGGTTTTCCCGGTAATCCGTATTTGTG (site CGCTCCTCTCA) | 0.976 |
| CGCTTAGCATGGACCGGTTTTCCCGGTAATCCGTATTTGTA (site CGCTTAGCTTA) | 1.88 |
| CGCTTTCCATGGACCGGTTTTCCCGGTAATCCGTATTTGGT (site CGCTTTCCTAC) | 0 |
| CGCTTTGCATGGACCGGTTTTCCCGGTAATCCGTATTTGGT (site CGCTTTGCTAC) | 1.08 |
| CGGAAACCATGGACCGGTTTTCCCGGTAATCCGTATTTGAT (site CGGAAACCTAT) | 0 |
| CGGAAACCATGGACCGGTTTTCCCGGTAATCCGTATTTGAT (site CGGCAACCTAT) | 0.00975 |
| CGGAAACCATGGACCGGTTTTCCCGGTAATCCGTATTTGAT (site CGGGAACCTAT) | 0 |
| CGGAAACCATGGACCGGTTTTCCCGGTAATCCGTATTTGAT (site CGGTAACCTAT) | 0 |
| CGGAAACCATGGACCGGTTTTCCCGGTAATCCGTATTTGTA (site CGGAAACCTTA) | 0 |
| CGGAAACCATGGACCGGTTTTCCCGGTAATCCGTATTTGTA (site CGGAATCCTAA) | 0 |
| CGGAAACCATGGACCGGTTTTCCCGGTAATCCGTATTTGTT (site CGGAAACCTAA) | 0 |
| CGGAAACCATGGACCGGTTTTCCCGGTAATCCGTATTTGTT (site CGGAACCCTAA) | 0.00618 |
| CGGAAACCATGGACCGGTTTTCCCGGTAATCCGTATTTGTT (site CGGAAGCCTAA) | 0.00793 |
| CGGAAACCATGGACCGGTTTTCCCGGTAATCCGTATTTGTT (site CGGAATCCTAA) | 0 |
| CGGAAATCATGGACCGGTTTTCCCGGTAATCCGTATTTGTT (site CGGAAATCTAA) | 2.29 |
| CGGAAATCATGGACCGGTTTTCCCGGTAATCCGTATTTGTT (site CGGAATCCTAA) | 0 |
| CGGAACCCATGGACCGGTTTTCCCGGTAATCCGTATTTGTT (site CGGAAACCTAA) | 0.0541 |
| CGGAACCCATGGACCGGTTTTCCCGGTAATCCGTATTTGTT (site CGGAACCCTAA) | 0.964 |
